What was measured:
Type in all cases: cell-based
[1] = test system: Aspergillus niger ATCC 16404; assay: Determination of MIC and MLC in test broth; settings: Aspergillus niger ATCC 16404, 30-day subculture
Method: (§1) Two antimicrobial endpoints were investigated. The minimum inhibitory concentration (MIC), which identifies the lowest concentration of test material at which growth for a specific organism is inhibited (by a minimum of 3 log units), reflects “biostatic activity”. The minimum lethal concentration (MLC), or lowest concentration that kills the organism and at which subculturing with growth is not possible, reflects “biocidal activity”. 1,4-CHDM and propylene glycol (PG) were added to previously sterilized screw-cap glass tubes and diluted with Peptone Water Broth with 2 wt % Dextrose (=test broth) to the following dilutions (weight percent): 0.05, 0.075, 0.125, 0.25, 0.5, 0.75, 1.25, 2.5, 5.0, 7.5, 10.0, 15.0, 20.0.
(§2) Each of 12 sets of the above test tubes were challenged with specific organisms (see Table 5) to produce a contamination of between 1.0×10^5 cfu/g and 1.0×10^6 cfu/g in the test broth to which no 1,4-CHDM or propylene glycol had been added. These challenge organisms were prepared in TSB broth, allowed to grow for 72 hours at 35° C.+/−2° C., centrifuged at 2500 rpm for 5 minutes, and the supernatant broth was removed. The microbial pellet was then re-diluted with sterile buffered water to a turbidity that matched previous 1.0×10^6 cfu/g concentrations of that organism's specific growth curve. This challenge was repeated on day 3. Plate counts of both challenges enumerated to within 1.0×10^5+/−5,000 cfu/g after 7 days incubation at 35° C.+/−2° C.
(§3) These tubes were mixed well by inversion (minimum of 25 inversions) and incubated at 35° C.+/−2° C. The tubes were inverted again (minimum of 25 times) on the third and seventh day of incubation and prior to each subculture.
(§4) These subcultures were incubated under optimal conditions and nutrition for no less than 5 days. Subcultures of 0.1 ml, undiluted and diluted 1:10, 1:100, . . . , and 1:10,000, were transferred to plates using the spread plate method onto Plate Count Agar; and SAB Dextrose Agar in addition for the Candida and Aspergillus species; and incubated as follows: 35° C.+/−2° C. for the Plate Count Agar and 22° C.+/−2° C. for the SAB Dextrose plates of Candida albicans and Aspergillus niger. Negative results were not reported before 7 days incubation and counts were performed after no less than 5 days incubation. Counts of Candida and Aspergillus species were made on the agar representing the highest count observed, usually the SAB Dextrose.

[2] = test system: Burkholderia cepacia ATCC 25416; assay: Determination of MIC and MLC in test broth; settings: Burkholderia cepacia ATCC 25416, 30-day subculture
Method: as §1, §2, §3, §4

[3] = test system: Penicillium notatum ATCC 36740; assay: Determination of MIC and MLC in test broth; settings: Penicillium notatum ATCC 36740, 30-day subculture
Method: as §1, §2, §3, §4

[4] = test system: Pseudomonas aeruginosa ATCC 27853; assay: Determination of MIC and MLC in test broth; settings: Pseudomonas aeruginosa ATCC 27853, 30-day subculture
Method: as §1, §2, §3, §4

[5] = test system: Staphylococcus aureus ATCC 25923; assay: Determination of MIC and MLC in test broth; settings: Staphylococcus aureus ATCC 25923, 30-day subculture
Method: as §1, §2, §3, §4

[6] = test system: Malassezia furfur (ATCC 96809); assay: Challenge testing against pathogenic fungi, growth rating in broth tubes; design: key: 0: No visible growth; 1: Some growth in tube; 2: Moderate growth in tube; 3: Good growth in tube; 4: Extreme growth in tube
How it was run: (§5)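 Fungi grown in Sabouraud dextrose broth (M. furfur with 2% olive oil/0.2% Tween 80), 22±2 °C; tubes of 1,4-CHDM-D90 dilutions inoculated, static incubation, subcultured at 3, 14, 30 days, triplicate. Growth rated 0–4: visually (M. canis), INT redox dye (T. rubrum), pellicle formation (M. furfur); 30-day MIC.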

[7] = test system: Microsporum canis (ATTC 9084); assay: as above; design: key: 0: No visible growth; 1: Some growth in tube; 2: Moderate growth in tube; 3: Good growth in tube; 4: Extreme growth in tube
How it was run: as §5

[8] = test system: Trichophyton rubrum (ATCC 10218); assay: as above; design: key: 0: No visible growth; 1: Some growth in tube; 2: Moderate growth in tube; 3: Good growth in tube; 4: Extreme growth in tube
How it was run: as §5

CC(O)CO (stereo not shown) [PG, propylene glycol]
MIC 30 DAYS [1]: 20 wt %
MLC 30 DAYS [1]: >20 wt %
MIC 30 DAYS [2]: 10 wt %
MLC 30 DAYS [2]: >20 wt %
MIC 30 DAYS [3]: >20 wt %
MLC 30 DAYS [3]: >20 wt %
MIC 30 DAYS [4]: 10 wt %
MLC 30 DAYS [4]: >20 wt %
MIC 30 DAYS [5]: 20 wt %
MLC 30 DAYS [5]: >20 wt %
M. furfur growth rating, 3 day ([6]; 0.5% weight/volume): 0
M. furfur growth rating, 14 day ([6]; 0.5% weight/volume): 3
M. furfur growth rating, 30 day ([6]; 0.5% weight/volume): 3
M. furfur growth rating, 3 day ([6]; 1.25% weight/volume): 0
M. furfur growth rating, 14 day ([6]; 1.25% weight/volume): 3
M. furfur growth rating, 30 day ([6]; 1.25% weight/volume): 3
M. furfur growth rating, 3 day ([6]; 2.5% weight/volume): 0
M. furfur growth rating, 14 day ([6]; 2.5% weight/volume): 3
M. furfur growth rating, 30 day ([6]; 2.5% weight/volume): 3
M. furfur growth rating, 3 day ([6]; 5.0% weight/volume): 0
M. furfur growth rating, 14 day ([6]; 5.0% weight/volume): 0
M. furfur growth rating, 30 day ([6]; 5.0% weight/volume): 3
M. canis growth rating, 3 day ([7]; 0.5% weight/volume): 2
M. canis growth rating, 14 day ([7]; 0.5% weight/volume): 1
M. canis growth rating, 30 day ([7]; 0.5% weight/volume): 2
M. canis growth rating, 3 day ([7]; 1.25% weight/volume): 2
M. canis growth rating, 14 day ([7]; 1.25% weight/volume): 1
M. canis growth rating, 30 day ([7]; 1.25% weight/volume): 1
M. canis growth rating, 3 day ([7]; 2.5% weight/volume): 1
M. canis growth rating, 14 day ([7]; 2.5% weight/volume): 1
M. canis growth rating, 30 day ([7]; 2.5% weight/volume): 2
M. canis growth rating, 3 day ([7]; 5.0% weight/volume): 1
M. canis growth rating, 14 day ([7]; 5.0% weight/volume): 1
M. canis growth rating, 30 day ([7]; 5.0% weight/volume): 2
T. rubrum growth rating, 3 day ([8]; 0.5% weight/volume): 0
T. rubrum growth rating, 14 day ([8]; 0.5% weight/volume): 1
T. rubrum growth rating, 30 day ([8]; 0.5% weight/volume): 1
T. rubrum growth rating, 3 day ([8]; 1.25% weight/volume): 1
T. rubrum growth rating, 14 day ([8]; 1.25% weight/volume): 0
T. rubrum growth rating, 30 day ([8]; 1.25% weight/volume): 1
T. rubrum growth rating, 3 day ([8]; 2.5% weight/volume): 1
T. rubrum growth rating, 14 day ([8]; 2.5% weight/volume): 0
T. rubrum growth rating, 30 day ([8]; 2.5% weight/volume): 1
T. rubrum growth rating, 3 day ([8]; 5.0% weight/volume): 1
T. rubrum growth rating, 14 day ([8]; 5.0% weight/volume): 0
T. rubrum growth rating, 30 day ([8]; 5.0% weight/volume): 1
